Measured values taken from patent US6534638B1, “Recombinant DNA molecules encoding aminopeptidase enzymes and their use in the preparation of vaccines against helminth infections” (priority 1992, dated 2003).
Where two headings read alike, the source gives them in different places.

Assays:
[1] = system: H110D aminopeptidase A-like activity; experiment: Inhibitor sensitivity of ConA H110D, α-glutamic acid-pNA substrate; type: biochemical, Haemonchus contortus
Description: (§1) α-amino acylpeptide hydrolase (microsomal) aminopeptidase activities in H110D preparations were characterised by assays, in solution, using L-leucine, methionine, phenylalanine, α-glutamic acid and lysine p-nitroanilides (pNA). All the amino acid p-nitroanilide substrates (except α-glutamic acid) were obtained from Sigma, Poole, Dorset UK, α-glutamic acid was from Fluka, Dorset, UK. Single hydrophobic (leucine- or phenylalanine-) and charged (α-glutamic acid-) amino acid pNA known to be substrates for mammalian aminopeptidase-M (ApM) and -A (ApA) respectively, were chosen to measure the effect of enzyme inhibitors and serum inhibition on H110D aminopeptidase activities.
(§2) Micro-ELISA plate (Dynatech Immulon 1, Virginia, USA) wells were each filled with 250 μl of either 50 mM HEPES or MOPS pH 7 plus 1-10 μl of the fraction to be assayed. The plates were then pre-incubated at 37° C. for 10 minutes prior to the addition of 10 μl of 25 mM amino acid p-nitroanilide substrate per well. The time zero optical density (OD) at 405 nm was then measured using an ELISA plate reader and the plates were then incubated at 37° C. for 15-30 minutes. The final OD reading was then taken as before and the OD change per minute per milligram of protein calculated.
(§3) The method used for the enzyme assay was as described in (a) above except that the inhibitors were added to the 250 μl of buffer plus 10 μl of 1 mg/ml ConA H110D and pre-incubated for 10 minutes at 37° C. prior to addition of the substrates (leucine-pNA or α-glutamic acid-pNA). The percentage inhibition was calculated as follows [formula]
(§4) Where x=the ΔOD/min of the enzyme with no inhibitor added and y=ΔOD/min of the enzyme plus inhibitor. Nine compounds with differing enzyme class inhibition were tested individually: Amastatin, Bestatin (metalloprotease, aminopeptidase), 1,10 phenanthroline, EDTA (metalloprotease), phosphoramidon (metalloprotease, thermolysin, collagenase), Aproptinin (serine protease), Pepstatin (aspartic protease), PMSF (serine and cysteine protease) and E64 (cysteine protease). Amastatin, bestatin, 1,10 phenanthroline, PMSF and pepstatin were obtained from Sigma, Dorset, UK. All the other inhibitors were obtained from Boehringer-Mannheim. Each inhibitor was used at two concentrations equal to or greater than the maximum concentrations recommended by Boehringer-Mannheim.

[2] = system: H110D aminopeptidase M-like activity; type: biochemical, Haemonchus contortus
Description: as §1, §2, §3
as §4, with “Boehringer-Mannheim.” for “Boehringer-Mannheim. Each inhibitor was used at two concentrations equal to or greater than the maximum concentrations recommended by Boehringer-Mannheim.”

SMILES | PERCENTAGE INHIBITION α-glutamic acid-p-nitroanilide substrate ([1]; inhibitor 1 mM) | PERCENTAGE INHIBITION α-glutamic acid-p-nitroanilide substrate ([1]; inhibitor 10 mM) | Ranking of inhibitors of H110D aminopeptidase activities ([2]; 5 mM) | PERCENTAGE INHIBITION Leucine-p-nitroanilide substrate ([2]; inhibitor 1 mM, ConA H110D) | PERCENTAGE INHIBITION Leucine-p-nitroanilide substrate ([2]; inhibitor 10 mM, ConA H110D) | PERCENTAGE INHIBITION α-glutamic acid-p-nitroanilide substrate ([1]; inhibitor 10 μM) | PERCENTAGE INHIBITION α-glutamic acid-p-nitroanilide substrate ([1]; inhibitor 50 μM) | PERCENTAGE INHIBITION Leucine-p-nitroanilide substrate ([2]; inhibitor 10 μM, ConA H110D) | PERCENTAGE INHIBITION Leucine-p-nitroanilide substrate ([2]; inhibitor 50 μM, ConA H110D) | PERCENTAGE INHIBITION α-glutamic acid-p-nitroanilide substrate ([1]; inhibitor 100 μM) | Reduction of activity against leucine-p-nitroanilide ([2]; ConA H110D, concentration recommended by the supplier) | PERCENTAGE INHIBITION Leucine-p-nitroanilide substrate ([2]; inhibitor 100 μM, ConA H110D)
c1cnc2c(c1)ccc1cccnc12 [1, 10 phenanthroline, 1,10 phenanthroline] | 78% | 85% | most effective inhibitor | 78% | 87% | – | – | – | – | – | – | –
CC(C)C[C@@H](N)[C@H](O)C(=O)N[C@H](C(=O)N[C@H](C(=O)N[C@@H](CC(=O)O)C(=O)O)C(C)C)C(C)C [Amastatin] | – | – | – | – | – | 0% | 0% | 61% | 66% | – | – | –
CC(C)C[C@H](NC(=O)[C@@H](O)[C@H](N)Cc1ccccc1)C(=O)O [Bestatin] | – | – | – | – | – | – | 23% | – | 63% | 35% | approximately 70% | 68%
O=C(O)CN(CCN(CC(=O)O)CC(=O)O)CC(=O)O [EDTA, ethylenediaminetetraacetic acid] | 17% | 21% | – | 8% | 16% | – | – | – | – | – | – | –
CC(C)C[C@H](NP(=O)(O)O[C@@H]1O[C@@H](C)[C@H](O)[C@@H](O)[C@H]1O)C(=O)N[C@@H](Cc1c[nH]c2ccccc12)C(=O)O [Phosphoramidon, phosphoramidon] | – | – | – | – | – | 1% | 1% | 0.8% | 7% | – | – | –
